Laboratory results from patent US6441023B1 (American Home Products Corporation, priority 1997, dated 2002).
pIC50: −log10 of the molar value. Counter-ions that a name gives are not always drawn.

Assays:
MMP 9 = target: T1, MMP 9 (Homo sapiens, UniProt P14780); test: In vitro gelatinase assay (human neutrophil gelatinase B); type: biochemical; conditions: read-out: MMP 9 IC 50
T1 construct: from tissue; host or cells: human neutrophils
Method: The assay is based on the cleavage of the thiopeptide substrate ((Ac-Pro-Leu-Gly(2 mercapto-4 methyl-pentanoyl)-Leu-Gly-OEt), Bachem Bioscience) by the enzyme, gelatinase, releasing the substrate product which reacts calorimetrically with DTNB ((5,5′-dithio-bis(2-nitro-benzoic acid)). The enzyme activity is measured by the rate of the color increase.
The thiopeptide substrate is made up fresh as a 20 mM stock in 100% DMSO and the DTNB is dissolved in 100% DMSO as a 100 mM stock and stored in dark at room temperature. Both the substrate and DTNB are diluted together to 1 mM with substrate buffer (50 mM HEPES pH 7.5, 5 mM CaCl2) before use. The stock of human neutrophil gelatinase B is diluted with assay buffer (50 mnM HEPES pH 7.5, 5 mM CaCl2, 0.02% Brij) to a final concentration of 0.15 mnM.
The increase in OD405 is plotted and the slope of the line is calculated which represents the reaction rate.

TACE = target: T2, TACE (Homo sapiens, UniProt P78536); test: Procedure for measuring TACE inhibition; type: biochemical; conditions: for pIC50: read-out: TACE IC 50; for inhibition at 10 µM: read-out: TACE % inhibition at 10 micromolar (*)
T2 construct: purchased Immunex
Method: Using 96-well black microtiter plates, each well receives a solution composed of 10 μL TACE (Inmunex, final concentration 1 μg/mL), 70 μL Tris buffer, pH 7.4 containing 10% glycerol (final concentration 10 mM), and 10 μL of test compound solution in DMSO ([…], DMSO concentration <1%) and incubated for 10 minutes at room temperature. The reaction is initiated by addition of a fluorescent peptidyl substrate (final concentration 100 μM to each well and then shaking on a shaker for 5 sec.
The reaction is read (excitation 340 nm, emission 420 nm) for 10 min. and the increase in fluorescence over time is plotted as a linear line. The slope of the line is calculated and represents the reaction rate.
The mean (xtsem) of the control rate is calculated and compared for statistical significance (p<0.05) with drug-treated rates using Dunnett's multiple comparison test.

MMP 13 = MMP 13 (Homo sapiens, UniProt P45452); test: MMP 13 inhibition (manual); type: biochemical; conditions: read-out: MMP 13 IC 50
MMP 1 = target: T3, MMP 1 (Homo sapiens, UniProt P03956); test: In vitro collagenase assay (human recombinant fibroblast collagenase); type: biochemical; conditions: read-out: MMP 1 IC 50
T3 construct: human recombinant fibroblast collagenase (truncated, mw=18,828, WAR, Radnor)
T3 sequence (P03956 100-269 limits assumed): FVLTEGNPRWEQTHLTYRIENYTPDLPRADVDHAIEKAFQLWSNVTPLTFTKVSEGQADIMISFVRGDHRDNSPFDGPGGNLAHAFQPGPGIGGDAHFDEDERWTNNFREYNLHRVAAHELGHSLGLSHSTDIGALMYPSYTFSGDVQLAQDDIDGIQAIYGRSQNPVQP
Method: The assay is based on the cleavage of a peptide substrate ((Dnp-Pro-Cha-Gly-Cys(iNe)-His-Ala-Lys(NMa)-NH2), Peptide International, Inc.) by collag,enase releasing the fluorescent NMa group which is quantitated on the fluorometer. Dnp quenches the NiIa fluorescence in the intact substrate. […] Substrate is dissolved in methanol and stored frozen in 1 mM aliquots. Collagenase is stored frozen in buffer in 25 µM aliquots. For the assay, substrate is dissolved in HCBC buffer to a final concentration of 10 μM and collagenase to a final concentration of 5 nM. Compounds are dissolved in methanol, DMSO, or HCBC. The methanol and DMSO are diluted in HCBC to <1.0%. Compounds are added to the 96 well plate containing enzyme and the reaction is started by the addition of substrate.
The slope of the line is calculated and represents the reaction rate.
The mean (x±sem) of the control rate is calculated and compared for statistical significance (p<0.05) with drug-treated rates using Dunnett's multiple comparison test.

T1 sequence (P14780 94-707): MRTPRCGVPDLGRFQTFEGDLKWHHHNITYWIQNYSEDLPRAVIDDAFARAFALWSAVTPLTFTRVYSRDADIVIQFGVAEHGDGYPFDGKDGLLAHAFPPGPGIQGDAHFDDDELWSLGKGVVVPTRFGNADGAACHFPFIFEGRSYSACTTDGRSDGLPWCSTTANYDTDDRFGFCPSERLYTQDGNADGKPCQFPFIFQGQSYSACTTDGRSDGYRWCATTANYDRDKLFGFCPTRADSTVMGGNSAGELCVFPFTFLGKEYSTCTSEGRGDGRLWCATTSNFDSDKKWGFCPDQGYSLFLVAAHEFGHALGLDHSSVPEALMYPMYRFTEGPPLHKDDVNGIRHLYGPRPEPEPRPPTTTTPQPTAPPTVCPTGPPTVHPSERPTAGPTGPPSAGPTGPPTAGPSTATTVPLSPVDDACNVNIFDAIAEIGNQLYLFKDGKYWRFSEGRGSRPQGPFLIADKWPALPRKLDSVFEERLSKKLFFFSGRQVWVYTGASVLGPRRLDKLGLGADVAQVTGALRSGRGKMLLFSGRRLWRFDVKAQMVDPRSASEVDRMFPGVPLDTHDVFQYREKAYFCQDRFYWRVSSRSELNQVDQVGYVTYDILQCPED
T2 sequence (P78536 215-824): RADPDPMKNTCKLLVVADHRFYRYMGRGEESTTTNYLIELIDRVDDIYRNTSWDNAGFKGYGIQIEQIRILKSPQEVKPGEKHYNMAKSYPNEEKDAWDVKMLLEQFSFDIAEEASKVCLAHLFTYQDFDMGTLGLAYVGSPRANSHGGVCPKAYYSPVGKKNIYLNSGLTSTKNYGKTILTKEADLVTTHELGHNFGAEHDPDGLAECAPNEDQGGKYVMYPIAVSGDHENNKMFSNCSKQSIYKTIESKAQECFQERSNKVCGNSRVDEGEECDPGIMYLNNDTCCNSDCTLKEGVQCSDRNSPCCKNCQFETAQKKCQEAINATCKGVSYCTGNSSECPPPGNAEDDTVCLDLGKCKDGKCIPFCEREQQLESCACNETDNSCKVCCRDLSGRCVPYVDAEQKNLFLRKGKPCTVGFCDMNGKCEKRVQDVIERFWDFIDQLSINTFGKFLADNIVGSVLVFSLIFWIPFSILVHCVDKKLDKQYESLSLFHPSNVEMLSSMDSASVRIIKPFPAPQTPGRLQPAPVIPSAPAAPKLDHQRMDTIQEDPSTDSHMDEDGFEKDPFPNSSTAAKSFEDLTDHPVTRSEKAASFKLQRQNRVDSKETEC

| melting point [°C] | Compound | pIC50 (MMP 9) | pIC50 (TACE) | pIC50 (MMP 13) | pIC50 (MMP 1) | inhibition at 10 µM (TACE) [%] |
| --- | --- | --- | --- | --- | --- | --- |
|  | CCCCOc1ccc(S(=O)(=O)C2(C(=O)NO)CCN(Cc3ccc(C#N)cc3)CC2)cc1 [Example 268, 4-(4-Butoxy-benzenesulfonyl)-1-(4-cyano-benzyl)-piperidine-4-hydroxamide carboxylic acid hydroxamide] | 8.55 | 6.56 | 8.96 | 5.64 |  |
|  | CN1CCC(C(=O)NO)(S(=O)(=O)c2ccc(OCc3ccc(Cl)cc3)cc2)CC1 [Example 264, [4-(4-Chloro-benzyloxy)benzenesulfonyl]-1-methylpiperidine-4-carboxylic acid hydroxamide] | 8.54 | 6.74 | 8.51 | 5.37 |  |
|  | CCCCCC(C(=O)NO)[S+]([O-])c1ccc(OC)cc1 (single isomer, unassigned) [Example 81b, 2S*-(4-methoxy-phenyl-R*-sulfinyl)-heptanoic acid hydroxyamide] | 6.81 | 6.64 | 7.80 | 5.42 |  |
| 172 | Cc1ccc(CN2CCC(C(=O)NO)(S(=O)(=O)c3ccc(OCc4ccc(Cl)cc4)cc3)CC2)cc1 (as salt: HCl) [Example 266, [4-(4-Chloro-benzyloxy)-benzenesulfonyl]-1-(4-methylbenzyl)-piperidine-4-carboxylic acid hydroxamide] |  |  |  |  |  |
| 158 | CCN1CCC(C(=O)NO)(S(=O)(=O)c2ccc(Oc3ccc(Cl)cc3)cc2)CC1 (as salt: HCl) [Example 250, 4-[4-(4-chloro-phenoxy)-benzenesulfonyl]1-ethyl-piperidine-4-carboxylic acid hydroxyamide] |  |  |  |  |  |
| 123 to 124 | CCCCCC#CCC(Cc1cccnc1)(C(=O)NO)S(=O)(=O)c1ccc(F)cc1 (stereo not drawn) [Example 77, 2-(4-Fluoro-benzenesulfonyl)-2-pyridin-3-ylmethyl-decfynoic acid hydroxyamide] |  |  |  |  |  |
|  | CCCCOc1ccc(S(=O)(=O)C2(C(=O)NO)CCN(Cc3ccc(Cl)c(Cl)c3)CC2)cc1 [Example 263, 1-(3,4-Dichlorobenzyl)-4-(4-butoxy-benzenesulfonyl)-piperidine-4-carboxylic acid hydroxyamide] | 7.69 |  | 8.28 | 5.44 | 57.7 |
|  | CCCCOc1ccc(S(=O)(=O)C2(C(=O)NO)CCN(Cc3cccc(Oc4ccccc4)c3)CC2)cc1 [Example 265, 4-(4-Butoxy-benzenesulfonyl)-1-(3-phenoxy-benzyl)-piperidine-4-carboxylic acid hydroxamide] | 8.03 | 5.98 | 8.11 | 5.71 |  |
|  | CCC(CC)COc1ccc(S(=O)(=O)C2(C(=O)NO)CCN(Cc3ccccc3)CC2)cc1 [Example 259, 1-Benzyl4-[4-(2-ethyl-butoxy)-benzenesulfonyl]-piperidine-4-carboxylic acid hydroxyamide] | 7.84 |  | 8.28 | 5.50 | 39 |
|  | CCCCOc1ccc(S(=O)(=O)C2(C(=O)NO)CCN(Cc3ccc(C)cc3)CC2)cc1 [Example 267, 4-(4-Butoxy-benzenesulfonyl)-1-(4-methylbenzyl)-piperidine-4-carboxylic acid hydroxamide] | 8.27 | 6.29 | 8.64 | 5.44 |  |
| 78 | COc1ccc(S(=O)(=O)C(Cc2cccnc2)(CC(C)C)C(=O)NO)cc1 (stereo not drawn) [Example 66, 2-(4-Methoxy-benzenesulfonyl)-4-methyl-2-pyrdin-3-yh nethyl-pentoic acid hydroxyamide] |  |  |  |  |  |
|  | CCN1CCC(C(=O)NO)(S(=O)(=O)c2ccc(Oc3ccc(Cl)cc3)cc2)CC1 [Example 250, 4-[4-(4-chloro-phenoxy)-benzenesulfonyl]1-ethyl-piperidine-4-carboxylic acid hydroxyamide] | 8.80 | 6.38 | 9.10 | 5.77 |  |
| 150 | CC#CCC(Cc1cccnc1)(C(=O)NO)S(=O)(=O)c1ccc(F)cc1 (stereo not drawn) [Example 76, 2-(4-Fluoro-benzenesulfonyl)-2-pyridin-3-ylmethyl-hex4-ynoic acid hydroxyamide] |  |  |  |  |  |
| 90 to 95 | COc1ccc(S(=O)(=O)C2(C(=O)NO)CCN(Cc3ccccc3)CC2)cc1 [Example 83, 1-Benzyl-4-(4-methoxy-benzenesulfonyl)-piperidine-4carboxylic Acid hydroxyamide] |  |  |  |  |  |
|  | CCCCOc1ccc(S(=O)(=O)C2(C(=O)NO)CCN(Cc3ccncc3)CC2)cc1 [Example 269, 4-(4-Butoxy-benzenesulfonyl)-1-pyridin-4-ylmethyl-piperidine-4-carboxylic acid hydroxamide] | 8.66 | 6.53 | 8.85 | 5.68 |  |
| 214 | COc1ccc(S(=O)(=O)C2(C(=O)NO)CCN(Cc3ccc(-c4ccccn4)cc3)CC2)cc1 (as salt: HCl) [Example 262, 4-(4-methoxy-benzenesulfonyl)-1-(4-pyridin-2-yl-benzyl)-piperidine-4-carboxylic acid hydroxyamide] |  |  |  |  |  |
|  | CCCCN1CCC(C(=O)NO)(S(=O)(=O)c2ccc(OCCC(C)C)cc2)CC1 [Example 256, 1 -Butyl-4-[4-(3-methyl-butoxy)-benzenesulfonyl]-piperidine-4-carboxylic acid hydroxyamide] | 8.14 |  | 8.54 | 5.00 | 43 |
| 52 | CN1CCC(C(=O)NO)(S(=O)(=O)c2ccc(Oc3ccc(Cl)cc3)cc2)CC1 (as salt: HCl) [Example 249, 4-[4-(4-chloro-phenoxy)-benzenesulfonyl]1-methyl-piperidine-4-carboxylic acid hydroxyamide] |  |  |  |  |  |
|  | CCCCN1CCC(C(=O)NO)(S(=O)(=O)c2ccc(Oc3ccc(Cl)cc3)cc2)CC1 [Example 251] | 9.10 | 6.52 | 9.05 | 5.97 |  |

| Compound | melting point [°C] | pIC50 (MMP 9) | pIC50 (TACE) | pIC50 (MMP 13) | pIC50 (MMP 1) | inhibition at 10 µM (TACE) [%] |
| --- | --- | --- | --- | --- | --- | --- |
| CCCCOc1ccc(S(=O)(=O)C2(C(=O)NO)CCN(Cc3ccc(Cl)c(Cl)c3)CC2)cc1 (as salt: HCl) [Example 263, 1-(3,4-Dichlorobenzyl)-4-(4-butoxy-benzenesulfonyl)-piperidine-4-carboxylic acid hydroxyamide] | 256.8 |  |  |  |  |  |
| CCCCOc1ccc(S(=O)(=O)C2(C(=O)NO)CCN(Cc3ccc(OCCN4CCCCC4)cc3)CC2)cc1 (as salt: HCl) [Example 242, 4-(4-Butoxy-benzenesulfonyl)-1-[4-(2-piperidin-1-yl-ethoxy)-benzyl]-piperidine-4-carboxylic acid hydroxyamide] | 155 |  |  |  |  |  |
| CCCCOc1ccc(S(=O)(=O)C2(C(=O)NO)CCN(Cc3ccc(C)cc3)CC2)cc1 (as salt: HCl) [Example 267, 4-(4-Butoxy-benzenesulfonyl)-1-(4-methylbenzyl)-piperidine-4-carboxylic acid hydroxamide] | 137 |  |  |  |  |  |
| CCCCOc1ccc(S(=O)(=O)C2(C(=O)NO)CCN(Cc3ccc(C#N)cc3)CC2)cc1 (as salt: HCl) [Example 268, 4-(4-Butoxy-benzenesulfonyl)-1-(4-cyano-benzyl)-piperidine-4-hydroxamide carboxylic acid hydroxamide] | 241.6 |  |  |  |  |  |
| CCCCOc1ccc(S(=O)(=O)C2(C(=O)NO)CCN(Cc3cccc(OC)c3)CC2)cc1 (as salt: HCl) [Example 260, 4-(4-butoxy-benzenesulfonyl)-1-(3-methoxy-benzyl)-piperidine-4-carboxylic acid hydroxyamide] | 137 |  |  |  |  |  |
